Data set [1] can be described thus: MTT viability assay, L929. In kind it is cell-based, murine. To be noted: mouse, L929 fibroblasts, tested 1–500 µM. The procedure: (§1) When the confluence was greater than 70%, adherent cell lines were detached from the bottle surface with a TrypLE solution and then used in assays or reduced. The cells were collected into centrifuge tubes and centrifuged at 1000× g for 5 min at room temperature. The supernatant was removed to dry. The cell pellets were then resuspended in an appropriate medium. The cells were counted using a Bürker chamber and resuspended in 96-well plates to a cell density of 10,000 cells per well for MTT assay. For the rhodamine accumulation test and the detection of apoptosis assay, cells were seeded at a density of 30,000 per well. In the migration assay, cells were seeded at a density of 20,000 per well, and monolayer formation was awaited.
(§2) In this study, normal human dermal fibroblasts (NHDFs), breast cancer cells (MCF7), human lung adenocarcinoma cells (A549), murine fibroblasts (L929), colon adenocarcinoma cells (HT29), and colorectal adenocarcinoma cells (LoVo) were used. All cell lines were cultured in the recommended media. […] The human lung adenocarcinoma cell line A549 and breast cancer cell line MCF-7 were obtained from the ECACC. These cell lines were cultured in Eagle’s minimal essential medium (MEM). Murine fibroblast L929 (Sigma-Aldrich, Merck Group, Headquarters, Darmstadt, Germany; the European Collection of Authenticated Cell Cultures—ECACC) cells were grown in DMEM. […] All media were supplemented with 10% FBS and 100 µg/mL of penicillin–streptomycin.
(§3) All compounds were dissolved in DMSO and the reference drugs were dissolved in physiological saline to concentrations of 10 mM. Concentrations from 1 to 500 μM in the media recommended for the cell lines were prepared for the tests.
(§4) All of the synthesized derivatives were evaluated via the MTT assay. All cell lines were seeded into 96-well plates at a density of 10,000 cells per well. To allow the cells to adhere to the surface of the plates, they were incubated overnight before the application of the test compounds. […] The tests were performed for concentrations of 1, 5, 10, 25, 50, 100, 250, and 500 μM. The solutions of the test compounds were removed from the culture on the 96-well plates. […] The supernatant was then removed. The violet crystal was dissolved in isopropanol for 30 min by shaking. Absorbance was measured at 570 nm.
(§5) Biological assays were performed in three independent replicates, and each replicate used four samples. Three repetitions were made for the ELISA determinations. For the assessment of cytotoxicity, mathematical models were developed using the GraphPad PRISM software, based on which CC50 was determined. The values of CC50 were estimated based on nonlinear regression using the dependence of the biological effect on the molar concentrations of the compounds (four-parameter logistic model with Hill slope).

Data set [2] can be described thus: MTT viability assay, NHDF. In kind it is cell-based, human. To be noted: human, normal human dermal fibroblasts (NHDF), tested 1–500 µM. As to the method:
as §1, §2, §3, §4, §5
(Tetrazolium assays rely on reduction of a dye to a coloured formazan, in cell work by metabolically active cells.)

In data set [3] the test system is lung adenocarcinoma (A549). The data set is described as follows: MTT viability assay, A549. The data set is classed as cell-based, human. The note with it: for SI (selectivity index): CC50 NHDF / CC50 A549; for CC50: Homo sapiens. The procedure:
as §1, §2, §3, §4, §5

Data set [4] relates to breast adenocarcinoma (MCF7). Briefly: MTT viability assay, MCF7. In kind it is cell-based, human. The note with it: for SI (selectivity index): CC50 NHDF / CC50 MCF7; for CC50: Homo sapiens, MCF7, MTT, tested 1–500 µM. The procedure: as §1, §2, §3, §4, §5
The subject of data set [5] is primary colon adenocarcinoma (HT29). Briefly: MTT viability assay, HT29. To be noted: for SI (selectivity index): CC50 NHDF / CC50 HT29; for CC50: tested 1–500 µM. The data set is classed as cell-based, human. As to the method: as §1, §2, §3, §4, §5
Data set [6] relates to metastatic colon adenocarcinoma (LoVo). Briefly: MTT viability assay, LoVo. In kind it is cell-based, human. The note with it: for SI (selectivity index): CC50 NHDF / CC50 LoVo; for CC50: Homo sapiens, LoVo, MTT, tested 1–500 µM. As to the method: as §1, §2, §3, §4, §5
Data set [7] has as its system HT29 primary colon adenocarcinoma cells. Briefly: Detection of apoptosis (Annexin V FITC / propidium iodide). In kind it is cell-based, human. Also on record: unit not given here. The note with it: 24 h. The procedure:
as §1, with “All cell lines were grown in 5% CO2 at 95% humidity and 37 °C, with both morphology and confluence assessed twice per week. When” for “When”
HT29 primary colon adenocarcinoma cells were grown in 96-well plates for 24 h. The 5 selected derivatives were added at concentrations of 1, 2, 5, and 10 µM, and then incubated for 24 h. The mixture of Annexin V conjugated with fluorescein and propidium iodide in PBS with Mg^2+ and Ca^2+ ions (Thermo Fisher Scientific, Waltham, MA, USA) was then applied. The incubation lasted 20 min at 37 °C. Pictures were taken using a fluorescence microscope. Thirteen images were taken from each well using an EVOS FL fluorescence microscope, with three replications for each compound. The open ImageJ space was used to analyze the number of cells. The Thermo Fisher Dead Cell Apoptosis Kit with Annexin V FITC and Propidium Iodide (PI) detects phosphatidylserine extrusion in apoptotic cells using Annexin V conjugated with a green fluorescent FITC dye and dead cells stained by PI with red fluorescence.

The subject of a further data set is HT29 cells. Briefly: Migration (scratch) assay. The note with it: control T 155558.2, control T0 544366.45. In kind it is cell-based, human. The procedure:
The scratch test was performed to verify that the tested compound 3g could inhibit the formation of metastases by the HT29 cell line. The seeded HT29 cells were incubated until they formed a monolayer over the entire surface of the well. Then, a scratch test was performed by making a scratch in the monolayer and measuring its width—that is, To, amounting to 544,366.45 μm^2. Freshly prepared compounds were added to the HT29 cells at concentrations of 10, 25, 50, and 100 μM. Breeding plates were incubated for 24 h. The next day, scratch width was measured again using the ImageJ open-source platform. […] The lowest cellular overgrowth of HT29 culture occurred at the concentration of 100 μM for the compound. Compound 3g inhibited the migration of HT29 cells more strongly than the reference drugs, showing that it has the potential to inhibit metastasis. The width of the scratch after 24 h when no compound was applied to the cells was used as a control (T = 155,558.2 μm^2).
as §1, with “All cell lines were grown in 5% CO2 at 95% humidity and 37 °C, with both morphology and confluence assessed twice per week. When” for “When”
After seeding, HT29 cells were incubated until they formed a monolayer over the entire surface of the well. A scratch was made on the surface overgrown with cells, and then photomicrographs of the scratch were taken using the EVOS FL microscope. The freshly prepared compound 3g and the reference drugs were added at concentrations of 10, 25, 50, and 100 µM. Then, they were incubated for 24 h, and micrographs were performed at that time using the EVOS FL microscope. The scratch width was measured using the ImageJ open-source platform. The measurement of scratch width was also performed after 24 h without adding compounds.

The next data set relates to A549. To be noted: cited from earlier work.
For the next data set, the system named is HT29. The note with it: ref 70; cited from earlier work.

Read-outs that look alike come from different tables or passages of the source.

Consider 5 compounds from article PMC9569971, “New Oxazolo[5,4-d]pyrimidines as Potential Anticancer Agents: Their Design, Synthesis, and In Vitro Biological Activity Research” (International Journal of Molecular Sciences, 2022).

With `CCCNc1ncnc2oc(-c3c(C)noc3N)nc12` [Compound 3c, 2-(5-Amino-3-methylisoxazol-4-yl)-7-N-propylaminooxazolo[5,4-d]pyrimidine], the melting point was 220 to 221 °C (dec.). For the same compound, half-maximal cytotoxicity in data set [1] (CC50) was put at 90.6 ± 8.75 µM. In addition, the CC50 in data set [2] was 172 ± 14.5 µM. For the same compound, the “CC50 ± SD” value in data set [3] (A549, MTT, tested 1–500 µM) is reported as “no activity”. In data set [4], the “SI (selectivity index)” value was 0.862 and the 50% cytotoxic concentration (CC50) worked out at 199 ± 16.1 µM. For the same compound, the “SI (selectivity index)” value in [5] turned out to be 0.766. In data set [5] (Homo sapiens, HT-29, HT29, MTT), it took 224 ± 23.1 µM to reach half-maximal cytotoxicity (CC50).

Take `CCCCCNc1ncnc2oc(-c3c(C)noc3N)nc12` [Compound 3e, 2-(5-Amino-3-methylisoxazol-4-yl)-7-N-pentylaminooxazolo[5,4-d]pyrimidine]: the CC50 turned out to be 89.2 ± 6.04 µM in data set [1]; 125 ± 11.5 µM in data set [2]; 125 ± 12.1 µM in data set [3] (A549, MTT, tested 1–500 µM); 155 ± 15.5 µM in data set [4]; 178 ± 6.65 µM in data set [6]; 129 ± 10 µM in data set [5] (Homo sapiens, HT-29, HT29, MTT). Moreover, the “SI (selectivity index)” value in [3] is recorded as 0.999; in data set [4], 0.804; in data set [6] it was 0.702; in data set [5], 0.963. Besides, the apoptosis mean is listed as 6.20 in data set [7] (1 μM), 4.33 in data set [7] (2 μM), 5.40 in [7] (5 μM) and 4.05 in data set [7] (10 μM). The late apoptosis mean came out at 11.11 in data set [7] (1 μM), 12.44 in data set [7] (2 μM), 18.31 in data set [7] (5 μM) and 22.59 in data set [7] (10 μM). The necrosis mean turned out to be 4.53 in [7] (1 μM), 9.43 in [7] (2 μM), 10.22 in [7] (5 μM) and 20.74 in data set [7] (10 μM). Besides, the “percent live (viable) cells” value was determined as 78.17 in data set [7] (1 μM), 73.80 in data set [7] (2 μM), 66.07 in data set [7] (5 μM) and 52.63 in data set [7] (10 μM).

Consider `Cc1noc(N)c1-c1nc2c(NCCN(C)C)ncnc2o1` [Compound 3f, 2-(5-Amino-3-methylisoxazol-4-yl)-7-N-[2-(N,N-dimethylamino)ethyl]aminooxazolo[5,4-d]pyrimidine], for which the 50% cytotoxic concentration (CC50) stood at 207 ± 16.5 µM in [1]; 172 ± 20.7 µM in data set [2]; 148 ± 13.8 µM in [3] (A549, MTT, tested 1–500 µM); 195 ± 12 µM in [4]; 235 ± 13 µM in [6]; 153 ± 15 µM in data set [5] (Homo sapiens, HT-29, HT29, MTT). In addition, the “SI (selectivity index)” value in data set [3] worked out at 1.161; in [4], 0.881; in data set [6] it was 0.729; in [5] it was 1.124. Moreover, the apoptosis mean in [7] (1 μM) stood at 7.07; in [7] (2 μM), 3.08; in data set [7] (5 μM), 6.76; in [7] (10 μM) it was 18.64. The late apoptosis mean in data set [7] (1 μM) is recorded as 3.15; in data set [7] (2 μM), 7.34; in data set [7] (5 μM), 12.74; in data set [7] (10 μM), 6.51. Moreover, the necrosis mean in data set [7] (1 μM) worked out at 0.16; in [7] (2 μM), 5.76; in data set [7] (5 μM), 5.73; in data set [7] (10 μM), 2.78. Moreover, the “percent live (viable) cells” value was found to be 89.62 in data set [7] (1 μM), 83.82 in [7] (2 μM), 74.77 in data set [7] (5 μM) and 72.06 in data set [7] (10 μM).

On to `O=c1[nH]cc(F)c(=O)[nH]1` [Compound 5-FU, 5-fluorouracil, reference compound], for which the CC50 stood at 38.1 ± 7.13 µM in [1]; 20.4 ± 2.97 µM in data set [2]; 269 ± 17.2 µM in data set [3] (A549, MTT, tested 1–500 µM); 217 ± 20 µM in [4]; 381 ± 25.5 µM in [5] (HT29, MTT); 381 µM in data set [5] (Homo sapiens, HT-29, HT29, MTT). The “SI (selectivity index)” value in data set [3] turned out to be 0.076; in [4] it was 0.094; in data set [6], 0.282; in data set [5], 0.053. For the same compound, the apoptosis mean is 7.92 in [7] (1 μM), 10.65 in data set [7] (2 μM), 10.75 in [7] (5 μM) and 3.81 in [7] (10 μM). The late apoptosis mean in data set [7] (1 μM) is recorded as 31.72; in data set [7] (2 μM), 28.91; in data set [7] (5 μM), 33.06; in [7] (10 μM), 16.02. Further, the necrosis mean in data set [7] (1 μM) is recorded as 10.48; in data set [7] (2 μM), 8.86; in data set [7] (5 μM) it was 8.39; in data set [7] (10 μM), 34.82. The “percent live (viable) cells” value in data set [7] (1 μM) is listed as 59.77; in data set [7] (2 μM), 63.94; in data set [7] (5 μM), 60.16; in data set [7] (10 μM), 55.23. Also, the “scratch width after 24 h, mean” value in the data set with HT29 cells (10 μM) is 155098.248 μm^2; with HT29 cells (25 μM) it was 192391.405 μm^2; in the data set on HT29 cells (50 μM) it was 198312.887 μm^2; in the data set with HT29 cells (100 μM) it was 282974.4 μm^2.

For `COc1cc2nccc(Oc3ccc(NC(=O)NC4CC4)c(Cl)c3)c2cc1C(N)=O` [Lenvatinib], the IC50 result is “almost no effect” with A549 (listed as lenvatinib), “No effect ^f” with A549 (ref 69) and 431 µM in the data set with HT29.

The term CC50 denotes the concentration giving 50% cytotoxicity. For orientation: melting point means the temperature of the solid-liquid transition. As a reminder, the IC50 is the concentration that inhibits the measured activity by half.
